Measurements: publication PMC3135721 (Journal of medicinal chemistry, 2010)

Target: TSPO (Rattus norvegicus, UniProt P16257)
Assay: Inhibition of [3H]1 binding to rat kidney mitochondrial membranes
Conditions: ratio of Ki, 20 vs Ib, 21 vs Ic

Row | Structure (SMILES) | gain in activity with respect to desmethyl counterpart
1 | CCCCN(CCCC)C(=O)C(=O)c1c(-c2ccccc2)n(C)c2ccccc12 [compound 20] | 25
2 | CCCCCCN(CCCCCC)C(=O)C(=O)c1c(-c2ccccc2)n(C)c2ccccc12 [compound 21] | 4.6
